Literature values, collected in patent publication US8062679B2, “Composition for maintaining androgen and androgen-like uptake potential by cells” (Northern Innovations and Formulations Corp., priority 2007, dated 2011).
Where two headings read alike, the source gives them in different places.

Key:
[1] = human blood
[2] = test system: mitochondrial permeability transition
[3] = test system: lutenizing hormone (LH); details: after exercise, animals
[4] = fights ROS under low oxygen tension
[5] = prolonged L-carnitine administration
[6] = three weeks, equivalent of 2 g elemental carnitine per day; cross-over, placebo controlled
[7] = molecular target: T1, aromatase (Homo sapiens, UniProt P11511)
T1 sequence (P11511 1-503): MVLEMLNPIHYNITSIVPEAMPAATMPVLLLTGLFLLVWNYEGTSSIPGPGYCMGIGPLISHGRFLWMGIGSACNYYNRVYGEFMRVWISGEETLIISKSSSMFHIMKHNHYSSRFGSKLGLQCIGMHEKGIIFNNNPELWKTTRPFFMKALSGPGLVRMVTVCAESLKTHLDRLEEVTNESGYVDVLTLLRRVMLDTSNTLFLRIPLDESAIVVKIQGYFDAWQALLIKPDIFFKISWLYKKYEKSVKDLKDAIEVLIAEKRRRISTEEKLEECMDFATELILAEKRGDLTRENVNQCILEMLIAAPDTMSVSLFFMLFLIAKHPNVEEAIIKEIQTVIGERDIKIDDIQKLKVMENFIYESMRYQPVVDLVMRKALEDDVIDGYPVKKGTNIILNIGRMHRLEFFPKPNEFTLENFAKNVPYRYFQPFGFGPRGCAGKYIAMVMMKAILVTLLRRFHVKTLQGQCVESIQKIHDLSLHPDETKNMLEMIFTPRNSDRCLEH

[8] = test system: GH
[9] = test system: GH; remark: listed apart in the source
[10] = test system: GH; details: oral, both 0.5 mg and 5.0 mg

In the case of `COC1=C(OC)C(=O)C(C/C=C(\C)CC/C=C(\C)CC/C=C(\C)CC/C=C(\C)CC/C=C(\C)CC/C=C(\C)CC/C=C(\C)CC/C=C(\C)CC/C=C(\C)CCC=C(C)C)=C(C)C1=O` [CoQ10, ubidecarenone], the antioxidant activity [1] is listed as “potent antioxidant”, the exercise duration (individuals suffering from angina, vs untreated groups) is listed as “able to exercise for longer periods” and the myocardial function (patients with disease conditions involving energy production deficits) is listed as “improved”.

In the case of `CCCCCCCCCCC1=C(C)C(=O)C(OC)=C(OC)C1=O` [Decylubiquinone], the “redox-dependent mitochondrial permeability transition” value [2] is given as “effectively block”.

In the case of `CC(C)=CCC[C@](C)(O[C@@H]1O[C@H](CO[C@@H]2O[C@H](CO)[C@@H](O)[C@H](O)[C@H]2O)[C@@H](O)[C@H](O)[C@H]1O)[C@H]1CC[C@]2(C)[C@@H]1[C@H](O)C[C@@H]1[C@@]3(C)CC[C@H](O[C@@H]4O[C@H](CO)[C@@H](O)[C@H](O)[C@H]4O[C@@H]4O[C@H](CO)[C@@H](O)[C@H](O)[C@H]4O)C(C)(C)[C@@H]3CC[C@]12C` [Ginsenoside Rb1], the “secretion of lutenizing hormone (LH)” value [3] is listed as “stimulate the secretion”.

For `COC1=C(OC)C(=O)C(CCCCCCCCCCO)=C(C)C1=O` [Idebenone], the antioxidant activity [4] is given as “potent antioxidant”.

For `C[N+](C)(C)C[C@H](O)CC(=O)[O-]` [L-carnitine], the “pain and damage from eccentric muscular effort” value [5] is given as “protective effect”.

For `C[N+](C)(C)C[C@H](O)CC(=O)[O-].O=C(O)C(O)C(O)C(=O)O` [LCLT, L-carnitine L-tartrate], the “muscle damage produced by an acute bout of high-intensity resistance exercise” value [6] is given as “reduce muscle damage”.

In the case of `CCCCC/C=C\C/C=C\CCCCCCCC(=O)O` [linoleic], the aromatase activity [7] is listed as “efficient suppressors”.

For `CC/C=C\C/C=C\C/C=C\CCCCCCCC(=O)O` [linolenic], the aromatase activity [7] is listed as “efficient suppressors”.

For `COc1ccc2[nH]cc(CCNC(C)=O)c2c1` [melatonin, N-Acetyl-5-methoxytryptamine], the “serum free GH following a single bout of heavy-resistance exercise” value ([8]; 0.5 and 5.0 mg, weight-trained young males) is listed as “significantly more effective than placebo”, the “serum IGFBP-3” value ([8]; pre- and post-exercise periods) is listed as “notable increases” and the “GH, area under the curve” value ([9]; 5.0 mg orally 60 minutes prior to bicycle exercise at 70% VO2max, vs placebo) is listed as “significant increases”. For the same compound, the “time of GH peak following exercise” value ([9]; 5.0 mg orally 60 minutes prior to exercise) was 30 min, the “plasma GH concentrations” value [10] was “significant increase” and the “time of peak plasma GH” value [10] was 60 min.

In the case of conjugated linoleic acids, the aromatase activity [7] is listed as “efficient suppressors”.
